From the kinase profiling compilation of Christmann-Franck et al. (2016) come the findings set out here.

JAK1 JH1 catalytic (human), sequence (P23458 whole entry, looked up): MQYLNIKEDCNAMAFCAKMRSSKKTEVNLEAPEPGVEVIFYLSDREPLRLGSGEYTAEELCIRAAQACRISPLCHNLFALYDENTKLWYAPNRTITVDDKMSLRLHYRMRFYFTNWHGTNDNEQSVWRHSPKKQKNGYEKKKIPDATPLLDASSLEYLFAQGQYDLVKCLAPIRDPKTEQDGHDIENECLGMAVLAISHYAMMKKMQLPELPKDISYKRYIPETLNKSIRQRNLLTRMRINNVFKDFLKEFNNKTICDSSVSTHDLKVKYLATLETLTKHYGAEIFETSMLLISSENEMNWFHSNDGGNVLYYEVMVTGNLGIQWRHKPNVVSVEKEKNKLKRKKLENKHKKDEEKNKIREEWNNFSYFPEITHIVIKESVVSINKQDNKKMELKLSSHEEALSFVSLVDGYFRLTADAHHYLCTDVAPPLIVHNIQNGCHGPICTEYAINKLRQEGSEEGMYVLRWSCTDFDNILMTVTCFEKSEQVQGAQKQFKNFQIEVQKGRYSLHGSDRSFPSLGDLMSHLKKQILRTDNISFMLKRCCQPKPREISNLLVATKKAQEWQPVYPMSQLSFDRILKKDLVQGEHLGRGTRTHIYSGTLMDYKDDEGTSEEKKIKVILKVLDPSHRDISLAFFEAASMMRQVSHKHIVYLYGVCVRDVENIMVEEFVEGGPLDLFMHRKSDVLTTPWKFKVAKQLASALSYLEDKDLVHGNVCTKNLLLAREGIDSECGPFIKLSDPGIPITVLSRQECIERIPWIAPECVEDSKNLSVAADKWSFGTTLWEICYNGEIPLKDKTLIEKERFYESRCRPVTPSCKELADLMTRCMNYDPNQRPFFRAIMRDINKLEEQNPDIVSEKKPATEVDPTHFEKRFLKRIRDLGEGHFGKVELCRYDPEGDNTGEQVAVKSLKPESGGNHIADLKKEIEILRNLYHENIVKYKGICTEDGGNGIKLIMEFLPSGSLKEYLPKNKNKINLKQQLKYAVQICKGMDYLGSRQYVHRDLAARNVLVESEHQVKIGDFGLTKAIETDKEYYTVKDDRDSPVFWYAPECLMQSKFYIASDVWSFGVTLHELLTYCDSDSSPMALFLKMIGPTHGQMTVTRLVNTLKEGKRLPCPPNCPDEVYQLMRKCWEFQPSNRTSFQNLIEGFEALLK
CDK9 CCNK (human), sequence (O75909 whole entry, looked up): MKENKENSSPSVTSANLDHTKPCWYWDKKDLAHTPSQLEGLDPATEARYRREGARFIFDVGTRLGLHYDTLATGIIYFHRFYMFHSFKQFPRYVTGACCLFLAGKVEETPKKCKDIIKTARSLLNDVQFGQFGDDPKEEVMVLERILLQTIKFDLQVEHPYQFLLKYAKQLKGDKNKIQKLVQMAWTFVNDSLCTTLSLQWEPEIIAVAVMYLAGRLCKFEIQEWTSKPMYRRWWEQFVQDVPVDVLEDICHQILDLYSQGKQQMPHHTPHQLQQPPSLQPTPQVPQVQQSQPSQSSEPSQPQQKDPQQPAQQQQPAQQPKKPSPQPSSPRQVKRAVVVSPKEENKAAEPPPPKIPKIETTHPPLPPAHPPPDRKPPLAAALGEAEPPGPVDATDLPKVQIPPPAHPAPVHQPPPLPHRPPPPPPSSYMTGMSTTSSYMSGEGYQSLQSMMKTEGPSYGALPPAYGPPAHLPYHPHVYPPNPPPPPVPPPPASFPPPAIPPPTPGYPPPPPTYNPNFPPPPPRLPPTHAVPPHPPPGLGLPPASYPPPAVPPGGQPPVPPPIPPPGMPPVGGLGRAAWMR
CDK9 CCNK (human), sequence (P50750 whole entry, looked up): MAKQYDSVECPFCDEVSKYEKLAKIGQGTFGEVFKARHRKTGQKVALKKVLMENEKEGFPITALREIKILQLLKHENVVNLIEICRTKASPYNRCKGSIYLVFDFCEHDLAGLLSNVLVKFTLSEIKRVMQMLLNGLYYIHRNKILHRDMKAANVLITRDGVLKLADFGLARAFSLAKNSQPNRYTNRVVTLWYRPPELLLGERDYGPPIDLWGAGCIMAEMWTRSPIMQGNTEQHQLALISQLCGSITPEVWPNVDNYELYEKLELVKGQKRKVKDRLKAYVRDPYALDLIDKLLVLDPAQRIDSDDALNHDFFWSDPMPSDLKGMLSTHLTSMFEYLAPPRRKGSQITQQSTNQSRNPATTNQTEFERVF

The target in one experiment is FYN (human) (UniProt P06241). Briefly: radiometric filter-binding kinase assay, Kinase HotSpot. The conditions noted are these: compound 0.5 µM; ATP 10 µM.
As usually defined, the residual activity is the signal under treatment as a percentage of the control signal. Turning to `O=C1Cc2c([nH]c3ccc(Br)cc23)-c2ccccc2N1`, the residual activity turned out to be 73.4%.

`Cn1nc2c3c(cccc31)C(=O)c1ccccc1-2`: the residual activity turned out to be 93.8%.

Regarding `COc1ccc(OC)c2c(=S)c3ccccc3[nH]c12`, the residual activity came out at 101%.

A further experiment has as its target KDR (human) (UniProt P35968). The experiment is described as above. The note with it: compound 0.5 µM; ATP 10 µM.
Take `O=C1Cc2c([nH]c3ccc(Br)cc23)-c2ccccc2N1`: the residual activity came to 98.1%.

`Cn1nc2c3c(cccc31)C(=O)c1ccccc1-2`: the residual activity is 101%.

As for `COc1ccc(OC)c2c(=S)c3ccccc3[nH]c12`, the residual activity worked out at 108%.

In another experiment the target is MST1R (human) (UniProt Q04912). Described as above. The conditions noted are these: compound 0.5 µM; ATP 10 µM.
In the case of `O=C1Cc2c([nH]c3ccc(Br)cc23)-c2ccccc2N1`, the residual activity amounted to 93.6%.

In the case of `Cn1nc2c3c(cccc31)C(=O)c1ccccc1-2`, the residual activity is 96.7%.

For the compound `COc1ccc(OC)c2c(=S)c3ccccc3[nH]c12`, the residual activity stood at 87.9%.

The next experiment addresses MAP4K4 (human) (UniProt O95819). The description is as above. The conditions noted are these: compound 0.5 µM; ATP 10 µM.
Regarding `O=C1Cc2c([nH]c3ccc(Br)cc23)-c2ccccc2N1`, the residual activity came out at 6.61%.

With `Cn1nc2c3c(cccc31)C(=O)c1ccccc1-2`, the residual activity was determined as 85.1%.

With `COc1ccc(OC)c2c(=S)c3ccccc3[nH]c12`, the residual activity came out at 101%.

The next experiment has as its target JAK1 JH1 catalytic (human) (UniProt P23458). The experiment is described as above. The note with it: compound 0.5 µM; ATP 10 µM.
As to `O=C1Cc2c([nH]c3ccc(Br)cc23)-c2ccccc2N1`, the residual activity worked out at 102%.

As for `Cn1nc2c3c(cccc31)C(=O)c1ccccc1-2`, the residual activity amounted to 110%.

`COc1ccc(OC)c2c(=S)c3ccccc3[nH]c12`: the residual activity was 102%.

The target of another experiment is PDGFRB (human) (UniProt P09619). The experiment is described as above. The note with it: compound 0.5 µM; ATP 10 µM.
`O=C1Cc2c([nH]c3ccc(Br)cc23)-c2ccccc2N1`: the residual activity was 93.2%.

As to `Cn1nc2c3c(cccc31)C(=O)c1ccccc1-2`, the residual activity came to 100%.

Take `COc1ccc(OC)c2c(=S)c3ccccc3[nH]c12`: the residual activity turned out to be 98.1%.

The target of the next experiment is PRKCA (human) (UniProt P17252). Described as above. The note with it: compound 0.5 µM; ATP 10 µM.
On to `O=C1Cc2c([nH]c3ccc(Br)cc23)-c2ccccc2N1`, for which the residual activity came out at 98.6%.

On to `Cn1nc2c3c(cccc31)C(=O)c1ccccc1-2`, for which the residual activity stood at 96.1%.

For the compound `COc1ccc(OC)c2c(=S)c3ccccc3[nH]c12`, the residual activity was found to be 95.7%.

Another experiment has as its target HIPK2 (human) (UniProt Q9H2X6). Described as above. The note with it: compound 0.5 µM; ATP 10 µM.
For `O=C1Cc2c([nH]c3ccc(Br)cc23)-c2ccccc2N1`, the residual activity is 107%.

Consider `Cn1nc2c3c(cccc31)C(=O)c1ccccc1-2`, for which the residual activity came to 105%.

For `COc1ccc(OC)c2c(=S)c3ccccc3[nH]c12`, the residual activity was 98.3%.

The target in a further experiment is STK16 (human) (UniProt O75716). The experiment is described as above. The note with it: compound 0.5 µM; ATP 10 µM.
STK16 (human), sequence (O75716 whole entry, looked up): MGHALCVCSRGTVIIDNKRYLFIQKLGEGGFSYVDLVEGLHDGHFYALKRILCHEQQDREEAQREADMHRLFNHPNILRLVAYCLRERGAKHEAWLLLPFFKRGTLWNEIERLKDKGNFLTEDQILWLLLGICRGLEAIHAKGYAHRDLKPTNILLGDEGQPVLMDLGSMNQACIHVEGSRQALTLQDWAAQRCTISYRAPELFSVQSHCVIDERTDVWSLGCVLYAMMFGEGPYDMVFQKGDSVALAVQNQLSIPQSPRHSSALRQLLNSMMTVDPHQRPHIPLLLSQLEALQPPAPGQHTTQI
Take `O=C1Cc2c([nH]c3ccc(Br)cc23)-c2ccccc2N1`: the residual activity worked out at 98.9%.

Consider `Cn1nc2c3c(cccc31)C(=O)c1ccccc1-2`, for which the residual activity amounted to 83.3%.

With `COc1ccc(OC)c2c(=S)c3ccccc3[nH]c12`, the residual activity is 90%.

A further experiment addresses STK17A (human) (UniProt Q9UEE5). The experiment is described as above. The note with it: compound 0.5 µM; ATP 10 µM.
`O=C1Cc2c([nH]c3ccc(Br)cc23)-c2ccccc2N1`: the residual activity was 102%.

For the compound `Cn1nc2c3c(cccc31)C(=O)c1ccccc1-2`, the residual activity worked out at 83.7%.

Take `COc1ccc(OC)c2c(=S)c3ccccc3[nH]c12`: the residual activity came out at 90.3%.

In another experiment the target is CDK5 CDK5R1 p25 (human) (UniProt Q00535+Q15078). The experiment is described as above. The conditions noted are these: compound 0.5 µM; ATP 10 µM.
CDK5 CDK5R1 p25 (human), sequence (Q00535 whole entry, looked up): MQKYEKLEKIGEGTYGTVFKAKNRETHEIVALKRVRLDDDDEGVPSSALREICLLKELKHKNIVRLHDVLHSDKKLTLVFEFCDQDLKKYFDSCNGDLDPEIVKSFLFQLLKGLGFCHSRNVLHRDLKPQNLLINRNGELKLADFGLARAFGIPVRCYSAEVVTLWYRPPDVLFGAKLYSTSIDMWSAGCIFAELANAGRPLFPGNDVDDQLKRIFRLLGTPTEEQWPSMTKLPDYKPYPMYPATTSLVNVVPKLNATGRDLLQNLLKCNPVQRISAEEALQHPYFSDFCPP
CDK5 CDK5R1 p25 (human), sequence (Q15078 whole entry, looked up): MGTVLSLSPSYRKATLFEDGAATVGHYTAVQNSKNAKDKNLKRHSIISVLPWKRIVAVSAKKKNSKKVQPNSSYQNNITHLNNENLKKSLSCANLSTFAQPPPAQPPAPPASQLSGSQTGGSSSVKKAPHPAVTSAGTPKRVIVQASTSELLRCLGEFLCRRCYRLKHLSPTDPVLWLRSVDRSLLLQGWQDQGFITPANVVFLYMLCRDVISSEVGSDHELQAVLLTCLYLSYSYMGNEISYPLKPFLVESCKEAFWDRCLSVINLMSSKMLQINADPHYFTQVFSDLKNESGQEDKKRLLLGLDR
For the compound `O=C1Cc2c([nH]c3ccc(Br)cc23)-c2ccccc2N1`, the residual activity is 64.8%.

Regarding `Cn1nc2c3c(cccc31)C(=O)c1ccccc1-2`, the residual activity was found to be 92.2%.

For `COc1ccc(OC)c2c(=S)c3ccccc3[nH]c12`, the residual activity is 85.4%.

A further experiment deals with CHUK (human) (UniProt O15111). The description is as above. The conditions noted are these: compound 0.5 µM; ATP 10 µM.
Regarding `O=C1Cc2c([nH]c3ccc(Br)cc23)-c2ccccc2N1`, the residual activity turned out to be 98.6%.

Consider `Cn1nc2c3c(cccc31)C(=O)c1ccccc1-2`, for which the residual activity is 97%.

Take `COc1ccc(OC)c2c(=S)c3ccccc3[nH]c12`: the residual activity is 94.3%.

The next experiment concerns the target CDK9 CCNK (human) (UniProt O75909+P50750). The experiment is described as above. The conditions noted are these: compound 0.5 µM; ATP 10 µM.
For `O=C1Cc2c([nH]c3ccc(Br)cc23)-c2ccccc2N1`, the residual activity was 31.5%.

On to `Cn1nc2c3c(cccc31)C(=O)c1ccccc1-2`, for which the residual activity is 96.5%.

As to `COc1ccc(OC)c2c(=S)c3ccccc3[nH]c12`, the residual activity came out at 92.2%.

For a further experiment, the target named is TTK (human) (UniProt P33981). The description is as above. The conditions noted are these: compound 0.5 µM; ATP 10 µM.
TTK (human), sequence (P33981 whole entry, looked up): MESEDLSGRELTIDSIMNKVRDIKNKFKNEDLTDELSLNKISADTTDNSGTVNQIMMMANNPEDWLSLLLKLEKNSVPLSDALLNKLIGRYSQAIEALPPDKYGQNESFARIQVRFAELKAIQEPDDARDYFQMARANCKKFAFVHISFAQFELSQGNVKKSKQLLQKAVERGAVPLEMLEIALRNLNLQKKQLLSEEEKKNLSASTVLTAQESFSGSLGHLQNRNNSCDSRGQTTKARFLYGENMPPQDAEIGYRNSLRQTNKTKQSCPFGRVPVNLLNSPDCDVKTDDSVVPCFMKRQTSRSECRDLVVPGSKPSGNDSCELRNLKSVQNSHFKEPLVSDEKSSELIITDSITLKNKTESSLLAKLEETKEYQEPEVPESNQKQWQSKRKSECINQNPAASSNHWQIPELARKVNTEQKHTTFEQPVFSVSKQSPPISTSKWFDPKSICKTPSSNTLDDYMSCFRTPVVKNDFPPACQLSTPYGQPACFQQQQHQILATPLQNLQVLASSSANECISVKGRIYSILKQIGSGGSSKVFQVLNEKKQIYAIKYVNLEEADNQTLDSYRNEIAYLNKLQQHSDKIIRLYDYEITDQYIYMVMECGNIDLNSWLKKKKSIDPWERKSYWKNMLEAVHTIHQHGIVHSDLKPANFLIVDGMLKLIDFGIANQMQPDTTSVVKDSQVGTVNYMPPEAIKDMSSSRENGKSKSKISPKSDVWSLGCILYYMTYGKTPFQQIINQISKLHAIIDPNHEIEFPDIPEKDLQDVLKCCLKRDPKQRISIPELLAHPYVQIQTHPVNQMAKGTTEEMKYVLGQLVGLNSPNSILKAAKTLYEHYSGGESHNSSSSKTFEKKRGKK
For the compound `O=C1Cc2c([nH]c3ccc(Br)cc23)-c2ccccc2N1`, the residual activity came out at 80.9%.

With `Cn1nc2c3c(cccc31)C(=O)c1ccccc1-2`, the residual activity is 77.7%.

Take `COc1ccc(OC)c2c(=S)c3ccccc3[nH]c12`: the residual activity came out at 99.1%.

Another experiment concerns the target CDK5 CDK5R1 p35 (human) (UniProt Q00535+Q15078). The experiment is described as above. The note with it: compound 0.5 µM; ATP 10 µM.
Regarding `O=C1Cc2c([nH]c3ccc(Br)cc23)-c2ccccc2N1`, the residual activity is 70.8%.

For `Cn1nc2c3c(cccc31)C(=O)c1ccccc1-2`, the residual activity worked out at 105%.

Take `COc1ccc(OC)c2c(=S)c3ccccc3[nH]c12`: the residual activity is 86.4%.

The target of a further experiment is IRAK4 (human) (UniProt Q9NWZ3). The experiment is described as above. The conditions noted are these: compound 0.5 µM; ATP 10 µM.
IRAK4 (human), sequence (Q9NWZ3 whole entry, looked up): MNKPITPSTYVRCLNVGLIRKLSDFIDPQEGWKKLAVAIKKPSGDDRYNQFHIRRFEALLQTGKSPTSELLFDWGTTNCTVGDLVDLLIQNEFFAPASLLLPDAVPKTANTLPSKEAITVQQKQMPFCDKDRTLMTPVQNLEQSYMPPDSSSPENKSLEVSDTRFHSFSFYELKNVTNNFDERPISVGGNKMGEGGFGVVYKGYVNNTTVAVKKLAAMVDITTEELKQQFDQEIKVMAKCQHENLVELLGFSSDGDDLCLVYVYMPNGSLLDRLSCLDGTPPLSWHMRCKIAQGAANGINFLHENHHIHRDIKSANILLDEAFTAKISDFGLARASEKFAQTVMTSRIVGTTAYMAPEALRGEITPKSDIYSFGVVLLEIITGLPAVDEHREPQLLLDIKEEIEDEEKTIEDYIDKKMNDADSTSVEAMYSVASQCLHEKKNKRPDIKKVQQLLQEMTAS
`O=C1Cc2c([nH]c3ccc(Br)cc23)-c2ccccc2N1`: the residual activity stood at 88.3%.

In the case of `Cn1nc2c3c(cccc31)C(=O)c1ccccc1-2`, the residual activity is 97.3%.

Take `COc1ccc(OC)c2c(=S)c3ccccc3[nH]c12`: the residual activity came out at 109%.

For a further experiment, the target named is PRKCE (human) (UniProt Q02156). Described as above. The conditions noted are these: compound 0.5 µM; ATP 10 µM.
For `O=C1Cc2c([nH]c3ccc(Br)cc23)-c2ccccc2N1`, the residual activity came out at 96.9%.

Regarding `Cn1nc2c3c(cccc31)C(=O)c1ccccc1-2`, the residual activity worked out at 95.7%.

For the compound `COc1ccc(OC)c2c(=S)c3ccccc3[nH]c12`, the residual activity was 93.3%.

A further experiment addresses PASK (human) (UniProt Q96RG2). The description is as above. The note with it: compound 0.5 µM; ATP 10 µM.
Regarding `O=C1Cc2c([nH]c3ccc(Br)cc23)-c2ccccc2N1`, the residual activity amounted to 98%.

Regarding `Cn1nc2c3c(cccc31)C(=O)c1ccccc1-2`, the residual activity worked out at 94.6%.

For the compound `COc1ccc(OC)c2c(=S)c3ccccc3[nH]c12`, the residual activity is 90.1%.

The target of the next experiment is PAK3 (human) (UniProt O75914). Described as above. The conditions noted are these: compound 0.5 µM; ATP 10 µM.
PAK3 (human), sequence (O75914 whole entry, looked up): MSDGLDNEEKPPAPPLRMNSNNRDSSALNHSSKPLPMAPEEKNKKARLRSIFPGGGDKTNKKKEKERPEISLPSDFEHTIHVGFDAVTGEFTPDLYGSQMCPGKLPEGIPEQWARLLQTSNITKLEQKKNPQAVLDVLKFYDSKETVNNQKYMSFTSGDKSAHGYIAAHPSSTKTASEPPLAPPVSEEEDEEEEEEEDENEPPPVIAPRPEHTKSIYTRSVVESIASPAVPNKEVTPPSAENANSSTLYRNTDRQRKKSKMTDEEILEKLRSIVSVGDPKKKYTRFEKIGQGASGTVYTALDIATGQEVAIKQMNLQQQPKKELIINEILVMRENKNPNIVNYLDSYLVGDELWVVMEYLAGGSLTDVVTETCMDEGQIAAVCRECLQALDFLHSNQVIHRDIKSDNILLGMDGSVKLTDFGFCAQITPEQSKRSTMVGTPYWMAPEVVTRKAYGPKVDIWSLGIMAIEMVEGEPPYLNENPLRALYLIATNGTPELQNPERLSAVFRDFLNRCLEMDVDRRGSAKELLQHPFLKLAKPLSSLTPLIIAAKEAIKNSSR
Consider `O=C1Cc2c([nH]c3ccc(Br)cc23)-c2ccccc2N1`, for which the residual activity amounted to 96.6%.

Turning to `Cn1nc2c3c(cccc31)C(=O)c1ccccc1-2`, the residual activity worked out at 101%.

Take `COc1ccc(OC)c2c(=S)c3ccccc3[nH]c12`: the residual activity was 98%.

The next experiment has as its target RPS6KA1 KD1 KD2 (human) (UniProt Q15418). The experiment is described as above. The note with it: compound 0.5 µM; ATP 10 µM.
`O=C1Cc2c([nH]c3ccc(Br)cc23)-c2ccccc2N1`: the residual activity was determined as 90.8%.

Regarding `Cn1nc2c3c(cccc31)C(=O)c1ccccc1-2`, the residual activity is 93.7%.

For `COc1ccc(OC)c2c(=S)c3ccccc3[nH]c12`, the residual activity came out at 94.6%.

A further experiment concerns the target PTK2 (human) (UniProt Q05397). The description is as above. The conditions noted are these: compound 0.5 µM; ATP 10 µM.
Take `O=C1Cc2c([nH]c3ccc(Br)cc23)-c2ccccc2N1`: the residual activity came out at 94.3%.

For `Cn1nc2c3c(cccc31)C(=O)c1ccccc1-2`, the residual activity was 92.8%.

In the case of `COc1ccc(OC)c2c(=S)c3ccccc3[nH]c12`, the residual activity came out at 106%.
